Source: patent US6875578B2, “System for cell-based screening” (priority 1997, dated 2005)

Experiments:
[1] = test system: mitochondrial potential within LLCPK cells; assay: JC-1 mitochondrial potential measurement, LLCPK cells; type: cell-based, pig; conditions: 10 μM valinomycin, within seconds of treatment
From the text: (§1) We have utilized a positively charged cyanine dye, JC-1 (Molecular Probes, Eugene, Oreg.), which diffuses into the cell and readily partitions into the mitochondrial membrane, for measurement of mitochondrial potential. The photophysics of JC-1 are such that when the probe partitions into the mitochondrial membrane and it experiences an electrical potential >140 mV, the probe aggregates and its spectral response is shifted to the red. At membrane potential values <140 mV, JC-1 is primarily monomeric and its spectral response is shifted toward the blue. Therefore, the ratio of two emission wavelengths (645 nm and 530 nm) of JC-1 partitioned into mitochondria provides a sensitive and continuous measure of mitochondrial membrane potential.
(§2) • 1. […] (2 times, 150 μl/well), the toxins were added if required, and the entire plate was scanned in a plate reader. The JC-1 monomer was measured optimally with a 485 nm excitation/530 nm emission wavelength filter set, and the aggregates were best measured with a 590 nm excitation/645 nm emission wavelength set. […]
(§3) The mitochondrial potential within several types of living cells, and the effects of toxins on the potential were measured using the fluorescence ratio Em 645 (590)/Em 530 (485) (excitation wavelengths in parentheses). For example, we measured the effect of 10 μM valinomycin on the mitochondrial potential within LLCPK cells (pig epithelia). […]

[2] = test system: mitochondrial potential in hepatocytes; assay: JC-1 mitochondrial potential measurement, hepatocytes; type: cell-based, rat; conditions: various concentrations, nearly complete within seconds to minutes
From the text: as §1, §2, §3

CC(C)[C@@H]1NC(=O)[C@H](C)OC(=O)[C@@H](C(C)C)NC(=O)[C@@H](C(C)C)OC(=O)[C@H](C(C)C)NC(=O)[C@H](C)OC(=O)[C@@H](C(C)C)NC(=O)[C@@H](C(C)C)OC(=O)[C@H](C(C)C)NC(=O)[C@H](C)OC(=O)[C@@H](C(C)C)NC(=O)[C@@H](C(C)C)OC1=O [Valinomycin]
reduction in mitochondrial potential (fluorescence ratio Em 645/Em 530 of JC-1) [1]: approximately 50%
changes in mitochondrial potential [2]: sensitive to valinomycin
